Reference: publication PMC9031249, “New 3-Acyl Tetramic Acid Derivatives from the Deep-Sea-Derived Fungus Lecanicillium fusisporum” (Marine Drugs, 2022)

Test system: NF-κB
Experiment: NF-κB luciferase reporter assay in LPS-induced RAW264.7 cells
Format: cell-based
Conditions: LPS induced RAW264.7 cells stably transfected with NF-κB luciferase reporter; treated 4 h, then LPS 100 ng/mL for 6 h; read-out: EC50, inhibition of NF-κB production
Description: The effects of 1–8 on LPS-induced NF-κB luciferase activity were detected by luciferase reporter gene assay as described earlier. Briefly, RAW264.7 cells, stably transfected with a NF-κB luciferase reporter construct, were treated with 1–8 (30 μM) and BAY11-7082 (NF-κB inhibitor, 5 μM) for 4 h, followed by stimulation with LPS (100 ng/mL^−1) for 6 h. The luciferase activity was determined using the luciferase assay system (Promega, Madison, WI, USA). The dose-dependent effects of 1–8 and BAY11-7082 on LPS induced NF-κB luciferase activity were detected by the same assay.

| EC50 [µM] | Molecule |
| --- | --- |
| 1.5 ± 1.4 | Cc1ccc(S(=O)(=O)/C=C/C#N)cc1 [BAY11-7082, reference compound] |
| 25.8 ± 1.3 | CC(C)=C1NC(=O)C(O)(C2C=CCC(C)O2)C1=O (stereo not drawn) [Compound 2, Lecanicilliumin B] |
| 24.7 ± 1.19 | COC1CC(C2(O)C(=O)NC(=C(C)C)C2=O)CC(C)O1 (stereo not drawn) [Compound 6, Lecanicilliumin F] |

Same assay, conditions: Mus musculus, RAW264.7, LPS induced RAW264.7 cells stably transfected with NF-κB luciferase reporter; treated 4 h, then LPS 100 ng/mL for 6 h; read-out: EC50, inhibition of NF-κB production

| EC50 [µM] | Molecule |
| --- | --- |
| 18.5 ± 1.21 | CC(C)=C1NC(=O)C(O)(C2C=CCC(C)O2)C1=O (stereo not drawn) [Compound 1, Lecanicilliumin A] |
| 23.1 ± 1.26 | COC1CC(C2(O)C(=O)NC(=C(C)C)C2=O)CC(C)O1 (stereo not drawn) [Compound 5, Lecanicilliumin E] |
| 26.5 ± 1.12 | CC(C)=C1NC(=O)C(O)(CC=CCC(C)O)C1=O (stereo not drawn) [Compound 7, Lecanicilliumin G] |

Test system: NO production in LPS-induced RAW264.7 cells
Experiment: not given
Set-up: method as in PMID 24016057, PMID 27976895
Conditions: read-out: EC50, inhibition of NO production; cited from earlier work

| Molecule | EC50 [µM] |
| --- | --- |
| C/C=C/C1=CC=C/C(=C2\C(=O)CNC2=O)O1 [Vermelhotin] | 5.35 |
| pseurotin A3 | 34.5 |
| pseurotin G | 57 |
